In assay [1] the target is Citron Rho-interacting kinase (Homo sapiens, UniProt O14578).
The target of assay [2] is Tyrosine-protein kinase Lck (Homo sapiens, UniProt P06239).
Assay [3] deals with T1, Dual specificity mitogen-activated protein kinase kinase 3 (Homo sapiens, UniProt P46734).
T1 sequence (P46734 whole entry): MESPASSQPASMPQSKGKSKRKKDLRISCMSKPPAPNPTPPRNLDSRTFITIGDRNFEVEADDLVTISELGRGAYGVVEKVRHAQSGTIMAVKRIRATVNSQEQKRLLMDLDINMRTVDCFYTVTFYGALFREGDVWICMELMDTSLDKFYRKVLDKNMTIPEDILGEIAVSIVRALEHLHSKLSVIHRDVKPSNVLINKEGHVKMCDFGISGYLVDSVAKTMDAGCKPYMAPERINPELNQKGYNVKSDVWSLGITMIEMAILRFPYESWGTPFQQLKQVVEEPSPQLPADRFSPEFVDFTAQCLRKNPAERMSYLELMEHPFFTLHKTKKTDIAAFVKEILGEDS

Assay [4] deals with Serine/threonine-protein kinase 10 (Homo sapiens, UniProt O94804).
In another assay the target is LIM domain kinase 1 (Homo sapiens, UniProt P53667).
In assay [5] the target is T2, Serine/threonine-protein kinase A-Raf (Homo sapiens, UniProt P10398).
T2 sequence (P10398 whole entry): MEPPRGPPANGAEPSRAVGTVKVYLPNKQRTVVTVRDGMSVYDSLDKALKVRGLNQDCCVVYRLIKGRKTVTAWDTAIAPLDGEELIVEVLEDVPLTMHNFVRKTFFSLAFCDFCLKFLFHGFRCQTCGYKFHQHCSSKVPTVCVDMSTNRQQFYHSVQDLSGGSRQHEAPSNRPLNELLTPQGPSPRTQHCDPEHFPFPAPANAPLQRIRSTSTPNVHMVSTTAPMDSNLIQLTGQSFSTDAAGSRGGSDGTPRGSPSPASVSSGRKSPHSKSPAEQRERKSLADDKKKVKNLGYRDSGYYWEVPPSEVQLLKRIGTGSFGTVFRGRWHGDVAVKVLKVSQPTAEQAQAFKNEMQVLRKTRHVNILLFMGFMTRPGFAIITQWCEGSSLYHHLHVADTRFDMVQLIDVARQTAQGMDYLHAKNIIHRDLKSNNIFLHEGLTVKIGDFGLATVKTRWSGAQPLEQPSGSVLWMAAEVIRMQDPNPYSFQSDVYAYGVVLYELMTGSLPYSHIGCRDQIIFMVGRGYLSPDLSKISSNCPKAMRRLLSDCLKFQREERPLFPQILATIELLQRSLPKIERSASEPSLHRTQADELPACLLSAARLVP

Assay [6] concerns the target T3, Interleukin-1 receptor-associated kinase 4 (Homo sapiens, UniProt Q9NWZ3).
T3 sequence (Q9NWZ3 whole entry): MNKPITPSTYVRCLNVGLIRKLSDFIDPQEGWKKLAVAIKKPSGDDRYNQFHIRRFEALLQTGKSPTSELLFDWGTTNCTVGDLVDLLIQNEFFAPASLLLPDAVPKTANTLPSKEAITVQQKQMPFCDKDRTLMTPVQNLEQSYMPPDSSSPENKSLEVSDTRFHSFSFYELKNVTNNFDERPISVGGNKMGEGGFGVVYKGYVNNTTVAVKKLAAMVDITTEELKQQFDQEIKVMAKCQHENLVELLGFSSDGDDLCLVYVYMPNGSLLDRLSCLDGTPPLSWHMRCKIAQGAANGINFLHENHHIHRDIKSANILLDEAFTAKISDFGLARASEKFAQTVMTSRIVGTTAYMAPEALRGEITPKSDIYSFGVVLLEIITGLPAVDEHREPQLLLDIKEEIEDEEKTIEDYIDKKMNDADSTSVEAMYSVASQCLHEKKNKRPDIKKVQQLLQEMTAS

Assay [7] deals with T4, Mitogen-activated protein kinase kinase kinase 2 (Homo sapiens, UniProt Q9Y2U5).
T4 sequence (Q9Y2U5 whole entry): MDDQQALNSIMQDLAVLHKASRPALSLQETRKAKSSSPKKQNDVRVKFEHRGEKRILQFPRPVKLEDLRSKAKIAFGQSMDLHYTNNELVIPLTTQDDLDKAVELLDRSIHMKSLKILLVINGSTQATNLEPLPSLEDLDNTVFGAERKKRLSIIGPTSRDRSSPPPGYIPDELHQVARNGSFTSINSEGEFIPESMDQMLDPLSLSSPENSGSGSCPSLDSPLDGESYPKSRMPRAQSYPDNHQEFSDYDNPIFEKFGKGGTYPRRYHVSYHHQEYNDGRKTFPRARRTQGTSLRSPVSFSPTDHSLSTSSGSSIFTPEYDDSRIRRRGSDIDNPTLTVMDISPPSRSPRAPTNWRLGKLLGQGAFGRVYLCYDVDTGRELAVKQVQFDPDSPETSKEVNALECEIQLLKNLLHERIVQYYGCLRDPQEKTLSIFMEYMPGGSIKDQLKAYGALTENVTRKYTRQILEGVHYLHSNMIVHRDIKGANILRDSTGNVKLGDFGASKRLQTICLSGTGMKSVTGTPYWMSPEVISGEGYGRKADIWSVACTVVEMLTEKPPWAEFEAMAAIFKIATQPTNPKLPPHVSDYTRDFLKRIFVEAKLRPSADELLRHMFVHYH

Activity calls are given as the source filed them. For most assays here, no stated cut-off is given here; in the data, actives have a measured Kd and inactives only a lower limit.

Chain of Citron Rho-interacting kinase (O14578 whole entry): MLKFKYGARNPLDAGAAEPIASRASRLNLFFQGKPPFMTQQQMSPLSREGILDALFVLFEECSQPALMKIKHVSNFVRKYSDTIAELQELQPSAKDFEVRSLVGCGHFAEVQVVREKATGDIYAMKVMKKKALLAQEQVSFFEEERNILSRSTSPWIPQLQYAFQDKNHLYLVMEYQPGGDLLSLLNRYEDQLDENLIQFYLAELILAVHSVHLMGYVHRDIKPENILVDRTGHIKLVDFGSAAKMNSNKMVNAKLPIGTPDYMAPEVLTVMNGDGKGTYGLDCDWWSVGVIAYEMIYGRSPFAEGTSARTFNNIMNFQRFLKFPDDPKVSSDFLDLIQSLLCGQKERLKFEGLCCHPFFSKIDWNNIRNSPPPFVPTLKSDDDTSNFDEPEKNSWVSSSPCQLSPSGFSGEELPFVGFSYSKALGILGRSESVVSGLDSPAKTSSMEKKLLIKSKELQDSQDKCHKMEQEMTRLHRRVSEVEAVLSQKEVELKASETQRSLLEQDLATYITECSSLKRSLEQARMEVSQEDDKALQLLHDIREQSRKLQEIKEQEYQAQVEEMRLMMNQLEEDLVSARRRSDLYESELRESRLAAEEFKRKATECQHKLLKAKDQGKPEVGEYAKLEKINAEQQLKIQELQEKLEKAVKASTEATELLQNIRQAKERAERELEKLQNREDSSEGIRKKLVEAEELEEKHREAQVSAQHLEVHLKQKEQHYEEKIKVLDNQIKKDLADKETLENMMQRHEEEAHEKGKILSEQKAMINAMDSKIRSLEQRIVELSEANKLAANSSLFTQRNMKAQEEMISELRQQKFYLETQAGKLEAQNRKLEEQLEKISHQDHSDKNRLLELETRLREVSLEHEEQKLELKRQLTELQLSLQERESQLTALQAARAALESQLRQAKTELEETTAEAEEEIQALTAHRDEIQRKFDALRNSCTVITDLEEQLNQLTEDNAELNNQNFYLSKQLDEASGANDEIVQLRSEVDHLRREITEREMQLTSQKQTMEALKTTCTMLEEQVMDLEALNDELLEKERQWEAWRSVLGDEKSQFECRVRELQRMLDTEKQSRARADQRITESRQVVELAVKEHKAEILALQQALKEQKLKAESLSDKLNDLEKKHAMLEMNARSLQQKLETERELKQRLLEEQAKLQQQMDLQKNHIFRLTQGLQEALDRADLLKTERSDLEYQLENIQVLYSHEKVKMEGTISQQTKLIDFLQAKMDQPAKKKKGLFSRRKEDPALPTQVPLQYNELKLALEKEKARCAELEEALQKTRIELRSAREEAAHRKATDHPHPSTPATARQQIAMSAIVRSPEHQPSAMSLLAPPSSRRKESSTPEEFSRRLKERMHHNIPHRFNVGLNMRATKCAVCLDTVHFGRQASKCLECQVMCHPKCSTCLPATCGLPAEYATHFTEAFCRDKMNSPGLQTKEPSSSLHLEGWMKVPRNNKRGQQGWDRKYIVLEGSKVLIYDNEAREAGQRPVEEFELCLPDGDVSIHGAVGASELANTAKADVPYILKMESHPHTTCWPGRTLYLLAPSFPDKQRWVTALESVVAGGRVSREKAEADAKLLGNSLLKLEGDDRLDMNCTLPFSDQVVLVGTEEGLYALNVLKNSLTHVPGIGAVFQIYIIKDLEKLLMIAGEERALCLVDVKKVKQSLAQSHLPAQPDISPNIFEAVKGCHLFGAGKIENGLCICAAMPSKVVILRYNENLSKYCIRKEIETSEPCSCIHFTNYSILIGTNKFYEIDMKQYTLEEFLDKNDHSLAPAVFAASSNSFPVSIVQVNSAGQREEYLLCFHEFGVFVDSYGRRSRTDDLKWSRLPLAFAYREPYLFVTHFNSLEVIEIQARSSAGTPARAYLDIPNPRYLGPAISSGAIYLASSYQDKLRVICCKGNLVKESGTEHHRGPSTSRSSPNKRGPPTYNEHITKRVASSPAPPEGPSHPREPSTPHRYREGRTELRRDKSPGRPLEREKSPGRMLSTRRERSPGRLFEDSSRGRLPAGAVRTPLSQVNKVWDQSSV
Chain of LIM domain kinase 1 (P53667 whole entry, the tested form may be a part): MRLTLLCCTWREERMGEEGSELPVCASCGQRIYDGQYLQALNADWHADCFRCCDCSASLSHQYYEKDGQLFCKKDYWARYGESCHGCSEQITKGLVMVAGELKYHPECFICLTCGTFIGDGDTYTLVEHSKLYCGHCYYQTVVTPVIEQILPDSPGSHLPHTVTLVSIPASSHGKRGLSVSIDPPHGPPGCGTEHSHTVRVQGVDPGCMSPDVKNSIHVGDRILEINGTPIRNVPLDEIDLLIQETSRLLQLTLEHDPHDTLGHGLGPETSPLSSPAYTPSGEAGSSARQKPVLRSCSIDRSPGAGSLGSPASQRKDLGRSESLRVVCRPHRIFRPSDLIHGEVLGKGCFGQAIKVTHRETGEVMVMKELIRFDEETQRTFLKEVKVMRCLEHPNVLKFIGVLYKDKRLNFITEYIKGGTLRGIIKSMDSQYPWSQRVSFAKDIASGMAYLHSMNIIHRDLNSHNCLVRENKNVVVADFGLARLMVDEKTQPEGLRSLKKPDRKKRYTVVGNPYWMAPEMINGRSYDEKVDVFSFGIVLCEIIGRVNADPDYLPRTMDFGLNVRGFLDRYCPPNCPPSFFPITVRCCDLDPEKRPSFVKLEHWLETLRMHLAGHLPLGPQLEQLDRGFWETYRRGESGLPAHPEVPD
Chain of Serine/threonine-protein kinase 10 (O94804 whole entry, the tested form may be a part): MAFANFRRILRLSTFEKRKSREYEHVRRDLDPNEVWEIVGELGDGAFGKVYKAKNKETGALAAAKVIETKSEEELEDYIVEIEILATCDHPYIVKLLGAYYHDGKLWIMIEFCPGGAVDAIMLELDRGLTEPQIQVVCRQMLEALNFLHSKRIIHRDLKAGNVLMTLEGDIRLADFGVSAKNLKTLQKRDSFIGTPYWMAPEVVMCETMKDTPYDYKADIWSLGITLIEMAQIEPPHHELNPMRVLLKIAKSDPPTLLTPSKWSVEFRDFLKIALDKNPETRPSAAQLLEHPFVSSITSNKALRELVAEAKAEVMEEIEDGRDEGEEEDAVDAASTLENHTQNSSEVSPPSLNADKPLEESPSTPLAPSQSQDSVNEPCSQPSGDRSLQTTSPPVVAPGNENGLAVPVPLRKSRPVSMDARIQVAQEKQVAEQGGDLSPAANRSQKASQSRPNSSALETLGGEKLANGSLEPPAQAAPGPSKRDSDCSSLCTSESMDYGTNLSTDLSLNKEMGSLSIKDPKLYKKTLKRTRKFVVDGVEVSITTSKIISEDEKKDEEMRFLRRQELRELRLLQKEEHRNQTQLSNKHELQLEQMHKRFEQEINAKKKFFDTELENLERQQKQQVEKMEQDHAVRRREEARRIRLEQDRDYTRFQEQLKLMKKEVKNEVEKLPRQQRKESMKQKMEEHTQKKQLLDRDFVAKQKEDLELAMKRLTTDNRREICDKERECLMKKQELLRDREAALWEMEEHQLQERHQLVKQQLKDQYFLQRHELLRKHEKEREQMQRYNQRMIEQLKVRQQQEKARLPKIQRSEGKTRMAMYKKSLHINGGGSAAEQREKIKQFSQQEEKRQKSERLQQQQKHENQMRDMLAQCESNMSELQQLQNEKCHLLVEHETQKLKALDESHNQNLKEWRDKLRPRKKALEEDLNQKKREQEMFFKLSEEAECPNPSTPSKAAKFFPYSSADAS
Chain of Tyrosine-protein kinase Lck (P06239 whole entry): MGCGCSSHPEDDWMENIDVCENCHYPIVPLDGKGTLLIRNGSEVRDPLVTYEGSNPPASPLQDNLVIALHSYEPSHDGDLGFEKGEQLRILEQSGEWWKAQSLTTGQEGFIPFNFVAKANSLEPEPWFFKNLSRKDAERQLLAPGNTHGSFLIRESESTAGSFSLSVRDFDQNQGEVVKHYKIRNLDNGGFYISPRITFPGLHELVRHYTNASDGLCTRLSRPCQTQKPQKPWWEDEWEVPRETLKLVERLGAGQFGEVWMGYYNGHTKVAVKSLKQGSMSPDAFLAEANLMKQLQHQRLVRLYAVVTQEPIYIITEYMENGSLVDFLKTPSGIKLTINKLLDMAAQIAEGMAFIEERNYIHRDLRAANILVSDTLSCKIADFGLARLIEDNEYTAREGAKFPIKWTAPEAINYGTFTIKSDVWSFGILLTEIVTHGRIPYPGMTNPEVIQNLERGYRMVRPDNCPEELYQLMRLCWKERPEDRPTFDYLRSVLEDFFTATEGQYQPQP

One may read the Kd as the equilibrium constant for the complex coming apart. As to `CC(=O)c1cnc2ccc(-c3cc(Cl)c(O)c(Cl)c3)nc2c1N[C@H]1CC[C@H](CN(C)C)CC1`, the Kd was 0.098 µM (active) in assay [1]; 0.073 µM (active) in assay [2]; > 30 µM (inactive) in assay [3]; 0.014 µM (active) in assay [4]; > 30 µM (inactive) at LIM domain kinase 1; > 30 µM (inactive) in assay [5].

Consider `CCNC(=O)C#Cc1ccc2c(c1)NC(=O)/C2=C(\Nc1ccc(CN(C)C)cc1)c1ccccc1`, for which the Kd was > 30 µM (inactive) in assay [1]; > 30 µM (inactive) in assay [6]; 0.115 µM (active) in assay [2]; > 30 µM (inactive) in assay [7]; > 30 µM (inactive) in assay [3]; 0.136 µM (active) in assay [4]. Also, the Kd at LIM domain kinase 1 was > 30 µM (inactive).

Take `C=CC(=O)N1CCC[C@H](n2c(=O)n(-c3ccc(Oc4ccccc4)cc3)c3c(N)ncnc32)C1`: the Kd is > 30 µM (inactive) in assay [1]; > 30 µM (inactive) in assay [6]; 0.005 µM in assay [2]; > 30 µM (inactive) in assay [7]; > 30 µM (inactive) in assay [3]; > 30 µM (inactive) in assay [4]. In addition, the Kd on LIM domain kinase 1 is > 30 µM (inactive).

As to `Cc1nc2cc(-c3nn(C(C)C)c4ncnc(N)c34)ccc2o1`, the Kd in assay [1] was > 30 µM (inactive); in assay [6], > 30 µM (inactive); in assay [2] it was > 30 µM (inactive); in assay [7], > 30 µM (inactive); in assay [3] it was > 30 µM (inactive); on LIM domain kinase 1, 1.85 µM (active). The Kd in assay [5] is > 30 µM (inactive).

`COCc1c(-c2ccc(NC(=O)Nc3cc(C(F)(F)F)ccc3F)c(F)c2)c2c(N)ncnn2c1CN1CCOCC1`: the Kd in assay [1], in assay [6], in assay [2], in assay [7], in assay [3] and in assay [4] was > 30 µM (inactive) each time. In addition, the Kd (on LIM domain kinase 1; in assay [5]) was > 30 µM (inactive) each time.

Turning to `O=C(Nc1c[nH]nc1-c1nc2cc(CN3CCOCC3)ccc2[nH]1)NC1CC1` [AT-9283], the Kd in assay [1] is > 30 µM (inactive); in assay [6], > 30 µM (inactive); in assay [2] it was 0.89 µM (active); in assay [7], 0.277 µM (active); in assay [3], > 30 µM (inactive); in assay [4], 0.082 µM (active). Besides, in assay [5], the Kd is > 30 µM (inactive).

For `NC(=O)Nc1cc(-c2cccc(F)c2)sc1C(=O)N[C@H]1CCCNC1` [AZD-7762], the Kd in assay [1] is > 30 µM (inactive); in assay [2] it was 1.29 µM (active); in assay [7], > 30 µM (inactive); in assay [3], > 30 µM (inactive); in assay [4], 0.36 µM (active); at LIM domain kinase 1, > 30 µM (inactive). In assay [5], the Kd was > 30 µM (inactive).

Take `CC(C)(C)c1nc(-c2cccc(NS(=O)(=O)c3c(F)cccc3F)c2F)c(-c2ccnc(N)n2)s1` [DABRAFENIB]: the Kd in assay [1] was > 30 µM (inactive); in assay [6] it was > 30 µM (inactive); in assay [2], 0.783 µM (active); in assay [7], > 30 µM (inactive); at LIM domain kinase 1 it was 0.033 µM (active); in assay [5], 0.047 µM (active).

On to `Cc1nc2cc(-n3ncc(C(=O)c4cc5ccccc5[nH]4)c3N)ccc2[nH]1` [FGFR INHIBITOR DEBIO 1347], for which the Kd in assay [1], in assay [6], in assay [2], in assay [7], in assay [3] and in assay [4] was > 30 µM (inactive) each time. Besides, on LIM domain kinase 1, the Kd was > 30 µM (inactive).

Turning to `O=C(Nc1cc(C(F)(F)F)cc(C(F)(F)F)c1)c1cc(Cl)ccc1O` [IMD-0354], the Kd in assay [1], in assay [2], in assay [7], in assay [3], in assay [4] and in assay [5] was > 30 µM (inactive) throughout.

For the origin of these results see ChEMBL document CHEMBL3991601, “The target landscape of clinical kinase drugs” (Science, 2017).
